Laboratory results as given in PubChem BioAssay (NCI).
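Assay format: 96-well plates, 48-hour exposure. TGI: concentration producing complete growth inhibition.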

Columns and labels:
Assay in all cases: DTP human tumour cell line panel, 48 h
U251 CNS = system: U251 CNS
HCT-15 colon = system: HCT-15 colon
MALME-3M melanoma = system: MALME-3M melanoma
CCRF-CEM leukemia = system: CCRF-CEM leukemia
SW-620 colon = system: SW-620 colon
M14 melanoma = system: M14 melanoma
OVCAR-4 ovarian = system: OVCAR-4 ovarian
SNB-75 CNS = system: SNB-75 CNS
786-0 renal = system: 786-0 renal
HL-60(TB) leukemia = system: HL-60(TB) leukemia
K-562 leukemia = system: K-562 leukemia
SN12C renal = system: SN12C renal
SK-OV-3 ovarian = system: SK-OV-3 ovarian
NCI-H226 lung = system: NCI-H226 lung
HOP-62 NSCLC = system: HOP-62 NSCLC
OVCAR-3 ovarian = system: OVCAR-3 ovarian
A498 renal = system: A498 renal
MDA-MB-435 = system: MDA-MB-435
MCF7 breast = system: MCF7 breast

| Compound | TGI (U251 CNS) | TGI (HCT-15 colon) | TGI (MALME-3M melanoma) | TGI (CCRF-CEM leukemia) | TGI (SW-620 colon) | TGI (M14 melanoma) | TGI (OVCAR-4 ovarian) | TGI (SNB-75 CNS) | TGI (786-0 renal) | TGI (HL-60(TB) leukemia) | TGI (K-562 leukemia) | TGI (SN12C renal) | TGI (SK-OV-3 ovarian) | TGI (NCI-H226 lung) | TGI (HOP-62 NSCLC) | TGI (OVCAR-3 ovarian) | TGI (A498 renal) | TGI (MDA-MB-435) | TGI (MCF7 breast) |
| --- | --- | --- | --- | --- | --- | --- | --- | --- | --- | --- | --- | --- | --- | --- | --- | --- | --- | --- | --- |
| C=CCCCN1CCCCC1=S | > 100 µM | > 100 µM | > 100 µM | > 100 µM | > 100 µM | > 100 µM | > 100 µM | > 100 µM | > 100 µM | > 100 µM | > 100 µM | > 100 µM | > 100 µM | > 100 µM | > 100 µM | > 100 µM | – | – | – |
| C#CC(C)(C)OCCCCOc1cc(O)c2c(=O)c3ccccc3n(C)c2c1 | > 100 µM | > 100 µM | > 100 µM | > 100 µM | > 100 µM | > 100 µM | > 100 µM | > 100 µM | > 100 µM | > 100 µM | > 100 µM | > 100 µM | > 100 µM | > 100 µM | > 100 µM | > 100 µM | > 100 µM | – | – |
| O=[N+]([O-])c1cccc(C2=NN(c3ccccc3)C3c4ccccc4OCC23)c1 (centres undefined) | > 100 µM | – | > 100 µM | > 100 µM | > 100 µM | – | – | > 100 µM | > 100 µM | > 100 µM | > 100 µM | – | > 100 µM | – | > 100 µM | > 100 µM | > 100 µM | – | – |
| O=C1NC(=S)NC(=O)C1=CC1CC1 | > 100 µM | > 100 µM | > 100 µM | > 100 µM | > 100 µM | > 100 µM | > 100 µM | > 100 µM | > 100 µM | > 100 µM | > 100 µM | > 100 µM | > 100 µM | > 100 µM | > 100 µM | – | > 100 µM | – | – |
| CCc1ccc(Cc2ccc(CC)c(NC(=O)C(=O)C3NC(=S)NC3=O)c2CC)c(CC)c1NC(=O)C(=O)C1NC(=S)NC1=O (centres undefined) | > 100 µM | > 100 µM | > 100 µM | > 100 µM | > 100 µM | > 100 µM | > 100 µM | > 100 µM | > 100 µM | > 100 µM | > 100 µM | – | > 100 µM | – | > 100 µM | > 100 µM | > 100 µM | – | – |
| CSc1ccc2c(cc1=O)C(NC(=O)c1ccccc1)CCc1cc(O)c(O)c(O)c1-2 (centres undefined) | 26.2 µM | 35.3 µM | > 100 µM | > 100 µM | 29.1 µM | 35.7 µM | 33.2 µM | 8.42 µM | > 100 µM | 38.2 µM | 37.2 µM | 44.7 µM | > 100 µM | 45.7 µM | 57.8 µM | 5.91 µM | 56.9 µM | – | – |
| COc1ccc(/C=C2/SC(=Nc3ccccc3)N(NC(=O)Cc3ccccc3)C2=O)c(OC)c1 | > 100 µM | > 100 µM | – | > 100 µM | > 100 µM | > 100 µM | > 100 µM | > 100 µM | > 100 µM | – | > 100 µM | > 100 µM | > 100 µM | > 100 µM | > 100 µM | > 100 µM | > 100 µM | > 100 µM | > 100 µM |
| COc1ccc(C(=O)c2nc3ccccc3nc2N2CCN(c3ccccc3)CC2)cc1OC | > 100 µM | > 100 µM | > 100 µM | > 100 µM | > 100 µM | > 100 µM | > 100 µM | > 100 µM | > 100 µM | > 100 µM | > 100 µM | – | > 100 µM | – | > 100 µM | > 100 µM | > 100 µM | > 100 µM | > 100 µM |
| Cc1cccc(N=Cc2ccc(N(CCC#N)S(=O)(=O)c3ccccc3)cc2C)c1 | > 100 µM | > 100 µM | > 100 µM | > 100 µM | > 100 µM | > 100 µM | > 100 µM | > 100 µM | > 100 µM | > 100 µM | > 100 µM | > 100 µM | > 100 µM | > 100 µM | > 100 µM | > 100 µM | > 100 µM | – | – |
| N#Cc1ccccc1NC(=O)C(=O)C(C(=O)c1ccncc1)C1OC(=O)c2ccccc21 (centres undefined) | > 100 µM | > 100 µM | > 100 µM | > 100 µM | > 100 µM | > 100 µM | > 100 µM | > 100 µM | > 100 µM | > 100 µM | > 100 µM | > 100 µM | > 100 µM | > 100 µM | > 100 µM | > 100 µM | > 100 µM | – | – |
| CO/N=C(/C(=O)Nc1c[n+](CC(=O)[O-])cs1)c1csc(N)n1 | > 100 µM | > 100 µM | > 100 µM | > 100 µM | > 100 µM | > 100 µM | – | – | > 100 µM | > 100 µM | > 100 µM | > 100 µM | > 100 µM | > 100 µM | – | > 100 µM | > 100 µM | – | – |
| CC12C3CC4C5CC(C(C53)[C@@H]1NCc1ccccc1)C42 (some centres undefined) | > 100 µM | > 100 µM | > 100 µM | > 100 µM | > 100 µM | > 100 µM | > 100 µM | > 100 µM | > 100 µM | > 100 µM | > 100 µM | > 100 µM | > 100 µM | > 100 µM | > 100 µM | > 100 µM | > 100 µM | – | – |
| CC(C)(C)OC(=O)N1CC(C)(C)N2C(=O)C3(CCCO3)C12 (centres undefined) | > 100 µM | > 100 µM | > 100 µM | > 100 µM | 30.4 µM | > 100 µM | > 100 µM | > 100 µM | > 100 µM | > 100 µM | > 100 µM | > 100 µM | > 100 µM | > 100 µM | > 100 µM | > 100 µM | > 100 µM | – | – |
